Counter-ions that a name gives are not always drawn.
Tests used:
THP-1 = THP-1 IC50 assay; type: cell-based; details: Homo sapiens; THP-1 cells
[1] = tested on: IL-1β release upon NLRP3 activation in peripheral blood mononuclear cells (PBMC); test: PBMC IC50 Determination Assay; type: cell-based; details: Homo sapiens; inhibition of IL-1β release; LPS-primed PBMC stimulated with ATP or nigericin
Protocol: The compounds of the present disclosure were tested for their inhibitory activity against IL-1β release upon NLRP3 activation in peripheral blood mononuclear cells (PBMC).
Protocol A. PBMC were isolated from buffy coats by density gradient centrifugation on Histopaque-1077 (Sigma, cat no. 10771). Isolated cells were seeded into the wells of a 96-well plate and incubated for 3 h with lipopolysaccharide (LPS). Following medium exchange, the compounds of the present disclosure were added (a single compound per well) and the cells were incubated for 30 min. Next, the cells were stimulated either with ATP (5 mM) or nigericin (10 μM) for 1 h and the cell culture media from the wells were collected for further analysis.
The release of IL-1β into the media was determined by a quantitative detection of IL-1β in the media using an IL-1β enzyme-linked immunosorbent assay (ELISA) Ready-SET-Go!, eBioscience cat. No. 88-7261-88. Briefly, in a first step, high affinity binding plates (Corning, Costar 9018 or NUNC Maxisorp Cat No. 44-2404) were coated overnight at 4° C. with specific capture antibody included in the kit (anti-human IL-1β ref. 14-7018-68). Subsequently, plates were blocked with blocking buffer for 1 h at room temperature (rt) and after washing with a buffer (PBS with 0.05% Tween-20) incubated with protein standard and culture media. After 2 h of incubation at rt, plates were washed and incubated with biotinylated detection antibody included in the kit (anti-human IL-1β Biotin ref. 33-7110-68) for 1 h at rt. Plates were washed and incubated with HRP-streptavidin for 30 min at rt and washed again. The signal was developed after addition of 3,3′,5,5′-tetramethylbenzidine-peroxidase (TMB) until colour appeared and the reaction was stopped by 2 M H2SO4. A microplate spectrophotometer (BioTek) was used to detect signals with 450 nm. The detection range of IL-1β ELISA was […].
Protocol B. PBMC were isolated from buffy coats by density gradient centrifugation on Histopaque-1077 (Sigma, cat no. 10771). Isolated cells were seeded into the wells (280,000 cells/well) of a 96-well plate and incubated for 3 h with lipopolysaccharide (LPS, 1 μg/mL diluted 1000× from a 1 mg/mL stock solution). The compounds of the present disclosure were added (a single compound per well) and the cells were incubated for 30 min. Next, the cells were stimulated with ATP (5 mM final concentration diluted 20× from a 100 mM stock solution) for 1 h and the cell culture media from the wells were collected for further analysis.
The release of IL-1β into the media was determined by quantitative detection of IL-1β in the media using HTRF®, CisBio cat. No. 62HIL1BPEH. Briefly, cell culture supernatant were dispensed directly into the assay plate containing antibodies labelled with the HTRF® donor and acceptor. A microplate spectrophotometer (BMG) was used to detect signals at 655 nm and 620 nm. The detection range of IL-1β HTRF® was 39-6500 μg/mL.

IC50 (THP-1) | SMILES | IC50 [1]
< 500 nM | Cc1cc(C(F)(F)F)cc(O)c1-c1ccc(CN[C@H]2CCOC2)nn1 [Compound 33, (S)-3-methyl-2-(6-(((tetrahydrofuran-3-yl)amino)methyl)pyridazin-3-yl)-5-(trifluoromethyl)phenol] | < 500 nM
1000 to 3000 nM | Cc1cc(C(F)(F)F)cc(O)c1-c1ccc(CN2CC[C@@H](F)C2)nn1 [Compound 34, (R)-2-(6-((3-Fluoropyrrolidin-1-yl)methyl)pyridazin-3-yl)-3-methyl-5-(trifluoromethyl)phenol] | 1000 to 3000 nM
500 to 1000 nM | Cc1cc(C(F)(F)F)cc(O)c1-c1ccc(CN2CC[C@H](F)C2)nn1 [Compound 35, (S)-2-(6-((3-Fluoropyrrolidin-1-yl)methyl)pyridazin-3-yl)-3-methyl-5-(trifluoromethyl)phenol] | 500 to 1000 nM
1000 to 3000 nM | Cc1cc(C(F)(F)F)cc(O)c1-c1ccc(CN[C@@H]2CCN(C)C(=O)C2)nn1 [Compound 37, (R)-4-(((6-(2-Hydroxy-6-methyl-4-(trifluoromethyl)phenyl)pyridazin-3-yl)methyl)amino)-1-methylpiperidin-2-one] | 500 to 1000 nM
500 to 1000 nM | Cc1cc(C(F)(F)F)cc(O)c1-c1ccc(CN2CCC(F)(F)C2)nn1 [Compound 38, 2-(6-((3,3-Difluoropyrrolidin-1-yl)methyl)pyridazin-3-yl)-3-methyl-5-(trifluoromethyl)phenol] | < 500 nM
1000 to 3000 nM | CO[C@@H]1CCN(Cc2ccc(-c3c(C)cc(C(F)(F)F)cc3O)nn2)C1 [Compound 39, (R)-2-(6-((3-Methoxypyrrolidin-1-yl)methyl)pyridazin-3-yl)-3-methyl-5-(trifluoromethyl)phenol] | 500 to 1000 nM
1000 to 3000 nM | CO[C@H]1CCN(Cc2ccc(-c3c(C)cc(C(F)(F)F)cc3O)nn2)C1 [Compound 40, (S)-2-(6-((3-Methoxypyrrolidin-1-yl)methyl)pyridazin-3-yl)-3-methyl-5-(trifluoromethyl)phenol] | 500 to 1000 nM
1000 to 3000 nM | Cc1cc(C(F)(F)F)cc(O)c1-c1ccc(COC2CCCN(C)C2)nn1 (stereo not shown) [Compound 41, 3-Methyl-2-(6-(((1-methylpiperidin-3-yl)oxy)methyl)pyridazin-3-yl)-5-(trifluoromethyl)phenol hydrochloride] | 500 to 1000 nM
3000 to 10000 nM | Oc1cc(C(F)(F)F)cc(F)c1-c1ccc(CNC2CCOCC2)nn1 [Compound 42, 3-Fluoro-2-(6-(((tetrahydro-2H-pyran-4-yl)amino)methyl)pyridazin-3-yl)-5-(trifluoromethyl)phenol] | 3000 to 10000 nM
500 to 1000 nM | Cc1cc(C(F)(F)F)cc(O)c1-c1ccc(CN[C@@H]2CCC(=O)N(C)C2)nn1 [Compound 43, (R)-5-(((6-(2-Hydroxy-6-methyl-4-(trifluoromethyl)phenyl)pyridazin-3-yl)methyl)amino)-1-methylpiperidin-2-one] | < 500 nM
500 to 1000 nM | Cc1cc(C(F)(F)F)cc(O)c1-c1ccc(CN2CCOC2=O)nn1 [Compound 44, 3-((6-(2-Hydroxy-6-methyl-4-(trifluoromethyl)phenyl)pyridazin-3-yl)methyl)oxazolidin-2-one] | < 500 nM
1000 to 3000 nM | Cc1cc(C(F)(F)F)cc(O)c1-c1ccc(COC2CCN(C)CC2)nn1 [Compound 45, 3-Methyl-2-(6-(((1-methylpiperidin-4-yl)oxy)methyl)pyridazin-3-yl)-5-(trifluoromethyl)phenol hydrochloride] | 1000 to 3000 nM
1000 to 3000 nM | Cc1cc(C(F)(F)F)cc(O)c1-c1ccc(CN2CC(C)CC2=O)nn1 (stereo not shown) [Compound 46, 1-((6-(2-Hydroxy-6-methyl-4-(trifluoromethyl)phenyl)pyridazin-3-yl)methyl)-4-methylpyrrolidin-2-one] | 1000 to 3000 nM
3000 to 10000 nM | Cc1cc(C(F)(F)F)cc(O)c1-c1ccc(CN2C(=O)CCC2(C)C)nn1 [Compound 47, 1-((6-(2-Hydroxy-6-methyl-4-(trifluoromethyl)phenyl)pyridazin-3-yl)methyl)-5,5-dimethylpyrrolidin-2-one] | 1000 to 3000 nM
1000 to 3000 nM | Cc1cc(C2CC2)cc(O)c1-c1ccc(CNC2CCOCC2)nn1 [Compound 48, 5-Cyclopropyl-3-methyl-2-(6-(((tetrahydro-2H-pyran-4-yl)amino)methyl)pyridazin-3-yl)phenol] | 1000 to 3000 nM
< 500 nM | Cc1cc(C(F)(F)F)cc(O)c1-c1ccc(CN[C@H]2CC(=O)N(C)C2)nn1 [Compound 49, (S)-4-(((6-(2-Hydroxy-6-methyl-4-(trifluoromethyl)phenyl)pyridazin-3-yl)methyl)amino)-1-methylpyrrolidin-2-one] | < 500 nM
3000 to 10000 nM | Cc1cc(C(F)(F)F)cc(O)c1-c1ccc(CN[C@@H]2CC(=O)N(C)C2)nn1 [Compound 50, (R)-4-(((6-(2-Hydroxy-6-methyl-4-(trifluoromethyl)phenyl)pyridazin-3-yl)methyl)amino)-1-methylpyrrolidin-2-one] | 1000 to 3000 nM
1000 to 3000 nM | Cc1cc(C(F)(F)F)cc(O)c1-c1ccc(CNc2c(C)noc2C)nn1 [Compound 51, 2-(6-(((3,5-Dimethylisoxazol-4-yl)amino)methyl)pyridazin-3-yl)-3-methyl-5-(trifluoromethyl)phenol] | 500 to 1000 nM
3000 to 10000 nM | Cc1cc(F)cc(O)c1-c1ccc(CNC2CCOCC2)nn1 [Compound 52, 5-Fluoro-3-methyl-2-(6-(((tetrahydro-2H-pyran-4-yl)amino)methyl)pyridazin-3-yl)phenol] | 3000 to 10000 nM
< 500 nM | Cc1cc(Cl)cc(O)c1-c1ccc(CN[C@@H]2CCOC2)nn1 [Compound 53, (R)-5-Chloro-3-methyl-2-(6-(((tetrahydrofuran-3-yl)amino)methyl)pyridazin-3-yl)phenol] | < 500 nM
500 to 1000 nM | Cc1cc(Cl)cc(O)c1-c1ccc(CN2CCCC2)nn1 [Compound 54, 5-Chloro-3-methyl-2-(6-(pyrrolidin-1-ylmethyl)pyridazin-3-yl)phenol] | < 500 nM
500 to 1000 nM | Cc1cc(C(F)(F)F)cc(O)c1-c1ccc(CNc2conc2C)nn1 [Compound 55, 3-Methyl-2-(6-(((3-methylisoxazol-4-yl)amino)methyl)pyridazin-3-yl)-5-(trifluoromethyl)phenol] | 500 to 1000 nM
1000 to 3000 nM | Cc1cc(Cl)cc(O)c1-c1ccc(CNc2c(C)noc2C)nn1 [Compound 56, 5-Chloro-2-(6-(((3,5-dimethylisoxazol-4-yl)amino)methyl)pyridazin-3-yl)-3-methylphenol] | 500 to 1000 nM
3000 to 10000 nM | Cc1cc([N+](=O)[O-])cc(O)c1-c1ccc(CNC2CCOCC2)nn1 [Compound 57, 3-Methyl-5-nitro-2-(6-(((tetrahydro-2H-pyran-4-yl)amino)methyl)pyridazin-3-yl)phenol hydrochloride] | 1000 to 3000 nM
1000 to 3000 nM | Cc1cc(Cl)cc(O)c1-c1ccc(CN(C)[C@@H]2CCOC2)nn1 [Compound 58, (R)-5-Chloro-3-methyl-2-(6-((methyl(tetrahydrofuran-3-yl)amino)methyl)pyridazin-3-yl)phenol] | 1000 to 3000 nM
500 to 1000 nM | Cc1cc(Cl)cc(O)c1-c1ccc(CN(C)[C@H]2CCOC2)nn1 [Compound 59, (S)-5-Chloro-3-methyl-2-(6-((methyl(tetrahydrofuran-3-yl)amino)methyl)pyridazin-3-yl)phenol] | 1000 to 3000 nM
1000 to 3000 nM | CO[C@@H]1CCN(Cc2ccc(-c3c(C)cc(Cl)cc3O)nn2)C1 [Compound 60, (R)-5-Chloro-2-(6-((3-methoxypyrrolidin-1-yl)methyl)pyridazin-3-yl)-3-methylphenol] | 1000 to 3000 nM
1000 to 3000 nM | CO[C@H]1CCN(Cc2ccc(-c3c(C)cc(Cl)cc3O)nn2)C1 [Compound 61, (S)-5-Chloro-2-(6-((3-methoxypyrrolidin-1-yl)methyl)pyridazin-3-yl)-3-methylphenol] | 1000 to 3000 nM

SMILES | IC50 (THP-1) | IC50 [1]
Oc1cc(Cl)cc(Cl)c1-c1ccc(CNC2CCOCC2)nn1 [Compound 36, 3,5-Dichloro-2-(6-(((tetrahydro-2H-pyran-4-yl)amino)methyl)pyridazin-3-yl)phenol] | 1000 to 3000 nM | 500 to 1000 nM

— patent US20250115558A1, “PYRIDAZINE DERIVATIVES AND RELATED USES” (NodThera Limited, priority 2023, published 2025)
